Data taken from patent publication US7993928B2, “Detection of blood plasma Danshensu and Salvianolic acid B dissipating blood stasis botanical” (Shanghai Sundise, priority 2007, dated 2011).

Settings: mammal plasma collected 0.5 hours after being drenched with strengthening body resistance and dissipating blood stasis botanical (FZHY); solid-phase extraction, UPLC/MS negative ion mode
Procedure: Method of pretreating mammalian blood plasma sample: Collect mammal plasma containing drugs 0.5 hours after being administered the strengthening body resistance and dissipating blood stasis botanical, misce bene after adding 2-5 mol/L phosphoric acid, and the volume ratio between the blood plasma and phosphoric acid is 1:2-3, applying the blood plasma with drugs to small column of WATERS OASIS HLB (a type of chromatographic column) activated by methanol and water; after leaching with water and 80-100% methanol and eluting with 0.2-1% ammonia-methanol, drying and enriching the eluent under the condition of 25-30° C., and redissolving the eluent with mobile phase.
UPLC/MS detection method: The analysis conditions of the applied UPLC/MS method in this invention, UPLC condition: chromatographic column: ACQUITY HPLC BEH C18 (a type of chromatographic column), 2.1×100 mm, mobile phase A: Water-Acetonitrile-Formic acid 95:5:0.1 v/v/v, mobile phase B: Acetonitrile-Formic acid 100:0.1 v/v, eluting in accordance with the following gradient: […]

Question: Which “Detection in the blood plasma” value does the source give for O=C(O)[C@H](O)Cc1ccc(O)c(O)c1 [Danshensu] here?
Answer: can be detected

Question: For O=C(/C=C/c1ccc(O)c2c1[C@H](C(=O)O[C@H](Cc1ccc(O)c(O)c1)C(=O)O)[C@@H](c1ccc(O)c(O)c1)O2)O[C@H](Cc1ccc(O)c(O)c1)C(=O)O [Salvianolic acid B], which “Detection in the blood plasma” value is on record?
Answer: can be detected
